According to US8389541B2, “Inhibitors of protein tyrosine kinase activity” (MethylGene Inc., priority 2007, dated 2013):

How the values were obtained:
[1] = tested on: A549 cells; assay: Wound healing assay in A549 cells (HGF-stimulated); assay type: cell-based; settings: Homo sapiens, last dose that inhibited gap closing by more than 25%, 24 h, read-out: A549 WOUND_HEALING IC50
Procedure: Wound healing assay in A549 cells. A549 cells (ATCC) are seeded in DMEM low glucose medium complemented with 10% FBS into 24-well plates at a density of 7.5×10^4 cells/well and grown to confluence (48 h). Inhibitors were added to the medium at a range of doses (0.00032-10 uM) for 3 h at which point a gap is introduced by scraping cells with a P1000 pipette tip. Cells are then stimulated to migrate by the addition of HGF (in the form of conditioned medium from 293T cells over-expressing the human HGF gene) and the culture is continued for 24 h. […] For the purpose of standardization, a control is carried on every assay plates.

[2] = molecular target: T1, VEGF receptor KDR (Homo sapiens, UniProt P35968); assay: In vitro receptor tyrosine kinase assay (DELFIA), VEGF receptor KDR; assay type: biochemical; settings: GST-VEGFR2 806-1356, 0.6 uM ATP; read-out: VEGFR IC50
T1 construct: made in house; host or cells: Sf9 cells (Spodoptera frugiperda), baculovirus
T1 sequence (P35968 806-1356): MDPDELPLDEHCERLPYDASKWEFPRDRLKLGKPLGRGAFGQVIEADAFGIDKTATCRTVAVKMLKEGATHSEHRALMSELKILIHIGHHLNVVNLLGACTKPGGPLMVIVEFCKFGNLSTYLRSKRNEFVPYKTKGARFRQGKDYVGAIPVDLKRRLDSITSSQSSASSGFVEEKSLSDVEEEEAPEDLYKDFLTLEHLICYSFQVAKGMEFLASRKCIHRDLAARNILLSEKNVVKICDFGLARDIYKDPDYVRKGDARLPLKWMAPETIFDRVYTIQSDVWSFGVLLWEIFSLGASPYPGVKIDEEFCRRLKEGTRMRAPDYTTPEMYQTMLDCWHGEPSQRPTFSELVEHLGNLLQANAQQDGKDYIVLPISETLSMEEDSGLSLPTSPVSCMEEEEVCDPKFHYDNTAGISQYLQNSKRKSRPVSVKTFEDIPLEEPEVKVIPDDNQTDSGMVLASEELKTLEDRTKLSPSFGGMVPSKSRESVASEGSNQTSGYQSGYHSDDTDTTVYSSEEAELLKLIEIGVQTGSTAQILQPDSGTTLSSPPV
From the text: In the case of VEGF receptor KDR a 1.6-kb cDNA corresponding to the catalytic domain of VEGFR2 or KDR (Genbank accession number AF035121 amino acid 806 to 1356) is cloned into the Pst I site of the pDEST20 Gateway vector (Invitrogen) for the production of a GST-tagged version of that enzyme.
The GST-VEGFR2806-1356 protein is expressed in Sf9 cells (Spodoptera frugiperda) upon infection with recombinant baculovirus construct.
The supernatant is loaded onto a GST-agarose column (Sigma) equilibrated with PBS pH 7.3. Following a four column volume (CV) wash with PBS pH 7.3+1% Triton X-100 and 4 CV wash with buffer B (50 mM Tris pH 8.0, 20% glycerol and 100 mM NaCl), bound proteins are step eluted with 5 CV of buffer B supplemented with 5 mM DTT and 15 mM glutathion. […] Final GST-VEGFR2806-1356 protein preparations concentrations are about 0.7 mg/ml with purity approximating 70%.

[3] = molecular target: recombinant human c-Met/HGF receptor (Homo sapiens, UniProt P08581); assay: In vitro receptor tyrosine kinase assay (DELFIA), c-Met/HGF receptor
Sequence of recombinant human c-Met/HGF receptor (P08581 1078-1337): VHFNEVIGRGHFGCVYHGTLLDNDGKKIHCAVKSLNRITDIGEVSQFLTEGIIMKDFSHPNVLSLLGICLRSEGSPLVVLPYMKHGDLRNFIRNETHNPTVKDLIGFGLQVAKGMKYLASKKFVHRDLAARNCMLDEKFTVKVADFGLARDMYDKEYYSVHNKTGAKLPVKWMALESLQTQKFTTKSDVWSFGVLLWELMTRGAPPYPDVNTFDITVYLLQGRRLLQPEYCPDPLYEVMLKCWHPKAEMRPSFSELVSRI

[4] = tested on: DU145 cells; assay: Scatter assay in DU145 cells (HGF-stimulated); assay type: cell-based; settings: Homo sapiens, DU-145, last dose that created an inhibitory effect on scattering, 24 h, read-out: DU145 SCATT. INHIB IC50
Procedure: Scatter assays in DU145. The scatter assay is performed as described previously (Miura H, Nishimura K, Tsujimura A, Matsumiya K, Matsumoto K, Nakamura T, et al. Effects of hepatocyte growth factor on E-cadherin-mediated cell-cell adhesion in DU145 prostate cancer cells. Urology 2001; 58(6):1064-9) for DU145 prostate carcinoma cells with the indicated modifications. In brief, DU145 cells (ATCC) are seeded in 24-well plates at a density of 7×10^3 cells/well in MEM medium complemented with 10% FBS and cultured for 48 h, to allow the formation of small compact colonies of cells. Inhibitors are subsequently added at a range of doses (0.00032-10 uM) for 3 h. Cells are then stimulated to migrate by the addition of HGF (in the form of conditioned medium from 293T cells over-expressing the human HGF gene) and the culture is continued for another 24 h. The IC50 values is defined as the last dose that created an inhibitory effect on scattering. For the purpose of standardization a control is carried on every test plates for the DU145 scattering assays.

[5] = molecular target: T2, c-Met (Homo sapiens, UniProt P08581); assay: Inhibition of c-Met phosphorylation in MKN45 cells (direct ELISA); assay type: cell-based; settings: 3 h treatment, read-out: CMET ELISA IN MKN45 IC50
T2 construct: endogenous in cells; host or cells: MKN45 gastric carcinoma cells
T2 sequence (P08581 25-1390): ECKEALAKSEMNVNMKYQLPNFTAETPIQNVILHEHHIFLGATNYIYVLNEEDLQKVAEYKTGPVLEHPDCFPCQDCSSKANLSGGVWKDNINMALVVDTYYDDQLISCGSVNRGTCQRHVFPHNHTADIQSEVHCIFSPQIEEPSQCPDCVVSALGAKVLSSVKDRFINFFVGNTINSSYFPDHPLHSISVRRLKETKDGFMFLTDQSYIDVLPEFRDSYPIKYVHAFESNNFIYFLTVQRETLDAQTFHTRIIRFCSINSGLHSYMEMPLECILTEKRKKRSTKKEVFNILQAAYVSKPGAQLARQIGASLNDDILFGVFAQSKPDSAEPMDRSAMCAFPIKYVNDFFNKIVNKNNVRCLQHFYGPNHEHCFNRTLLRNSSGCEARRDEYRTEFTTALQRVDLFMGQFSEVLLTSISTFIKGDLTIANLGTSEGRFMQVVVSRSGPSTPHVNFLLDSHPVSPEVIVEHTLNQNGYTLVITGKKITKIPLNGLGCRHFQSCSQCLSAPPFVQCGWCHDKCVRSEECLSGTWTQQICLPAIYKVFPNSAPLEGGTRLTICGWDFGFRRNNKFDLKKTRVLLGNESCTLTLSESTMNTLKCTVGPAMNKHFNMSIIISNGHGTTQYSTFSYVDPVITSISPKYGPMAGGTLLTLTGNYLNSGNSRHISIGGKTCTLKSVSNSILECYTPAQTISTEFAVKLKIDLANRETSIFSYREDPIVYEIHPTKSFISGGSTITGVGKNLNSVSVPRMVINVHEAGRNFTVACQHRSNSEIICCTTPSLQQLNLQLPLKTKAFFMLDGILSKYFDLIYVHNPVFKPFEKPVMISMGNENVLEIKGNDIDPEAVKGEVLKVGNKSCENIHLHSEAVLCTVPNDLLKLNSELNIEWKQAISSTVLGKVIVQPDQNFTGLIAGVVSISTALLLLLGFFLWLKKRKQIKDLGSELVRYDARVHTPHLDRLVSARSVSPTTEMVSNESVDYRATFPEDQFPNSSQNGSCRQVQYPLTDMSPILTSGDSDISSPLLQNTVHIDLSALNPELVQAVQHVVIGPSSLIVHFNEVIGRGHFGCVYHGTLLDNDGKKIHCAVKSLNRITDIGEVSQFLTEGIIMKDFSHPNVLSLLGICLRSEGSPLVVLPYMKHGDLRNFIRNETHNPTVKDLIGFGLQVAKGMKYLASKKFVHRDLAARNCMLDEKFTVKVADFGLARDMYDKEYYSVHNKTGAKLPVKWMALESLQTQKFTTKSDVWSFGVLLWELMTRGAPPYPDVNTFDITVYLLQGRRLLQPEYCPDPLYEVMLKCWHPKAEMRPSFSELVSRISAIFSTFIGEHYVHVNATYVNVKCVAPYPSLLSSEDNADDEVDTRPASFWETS
From the text: The following assay is used to determine inhibition of c-Met phosphorylation.
The c-Met receptor is expressed in numerous cancer cell lines derived from tumors of epithelial origin. In MKN45 gastric carcinoma cells the c-Met gene is amplified, resulting in several-fold overexpression of the receptor and its constitutive activation. For this reason constitutively high levels of ERK1/2 are also detected in these cells, independently of HGF-added stimulation (Smolen G A, Sordella R, Muir B, Mohapatra G, Barmettler A, Archibald H, et al. Amplification of MET may identify a subset of cancers with extreme sensitivity to the selective tyrosine kinase inhibitor PHA-665752. Proc Natl Acad Sci USA 2006). We have developed a sensitive method to follow c-Met phosphorylation in these cells. In previous studies with earlier generation c-Met inhibitors, we established that the IC50s for the inhibition of c-Met phosphorylation were identical using this novel ELISA approach and standard western blot procedure, with antibodies directed against the activating autocatalysis tyrosine residues of c-MET (Tyr Y1230-34-35).
Cell treatments: MKN45 cells are seeded into wells of 96-well plates at a density of 3×10^4 cells/well in RPMI medium supplemented with 10% FBS. HA-TPR-RON expressing 293T (clone 18) cells are seeded into wells of 96-well plates at a density of 3×10^4 cells/well in DMEM medium supplemented with 10% FBS. Cells are grown for 48 h prior to treatments with compounds of interest. Inhibitors are added to the medium in triplicate wells at the indicated doses. After 3 h of treatment, media is aspirated and cells are lysed by one freeze-thaw cycle in 50 μL/well hypotonic lysis buffer (25 mM HEPES pH 7.5, 10 mM NaCl with 1 mM 4-(2-aminoethyl)benzenesulfonyl fluoride hydrochloride, 200 μM sodium orthovanadate, 1 mM sodium fluoride, 10 μg/mL of leupeptin, 10 μg/mL of aprotinin/mL, 1 μg/mL of pepstatin and 50 μg/mL Na-p-tosyl-L-lysine chloromethyl ketone hydrochloride.
Detection of phosphorylated c-Met by direct ELISA: Lysate samples (5 μL) from wells of treatment plates are transferred to 80 μL of binding buffer (25 mM HEPES pH 7.5, 200 mM NaCl) in wells of high binding white polysterene 96-well plates (Corning). After an overnight protein binding incubation at 4° C., lysates are aspirated and wells are blocked for 1 h at 37° C. in TBST supplemented with 5% BSA. Plates are incubated with the primary antibodies anti-phospho-Tyrosine (Millipore, 4G10) diluted 1/15000 in TBST supplemented with 5% BSA for 1 h at room temperature. Plates are washed 3 times on a plate washer (SkanWasher, Molecular Devises), and incubated with the reporter antibody […] (Sigma) diluted 1/15000 in TBST supplemented with 5% BSA, for 1 h at room temperature. Plates are washed 3 times with TBST using on a plate washer and subsequently incubated with chemiluminescent substrate solution (ECL, Roche). Luminescence signal is captured on a Polar Star Optima apparatus (BMG LabTech).
Average values of the triplicate samples are used to prepare IC50 curves using a 4-parameter fit model. These curves are calculated using, for example, GraFit 5.0 software. For assay standardization purpose, an internal control is included on each experimental test plate.

## COCCNCc1ccc(-c2cc3nccc(Oc4ccc(NC(=S)NC(=O)Cc5ccc(F)cc5)cc4F)c3s2)o1
[1]
  IC50: > 1000 nM
[2]
  IC50: < 250 nM
[3]
  IC50: < 250 nM
[4]
  IC50: > 1000 nM
[5]
  IC50: < 250 nM

## COCCNCCn1cc(-c2cc3nccc(Oc4ccc(NC(=S)NC(=O)Cc5ccccc5)cc4F)c3s2)cn1 [drawing 321]
[1]
  IC50: 250 to 500 nM
[2]
  IC50: < 250 nM
[3]
  IC50: < 250 nM
[4]
  IC50: 250 to 500 nM
[5]
  IC50: < 250 nM

## COCCNCc1ccc(-c2cc3nccc(Oc4ccc(NC(=S)NC(=O)Cc5ccccc5)cc4F)c3s2)o1
[1]
  IC50: 250 to 500 nM
[2]
  IC50: < 250 nM
[3]
  IC50: < 250 nM
[4]
  IC50: > 1000 nM
[5]
  IC50: < 250 nM

## O=C(Cc1ccc(F)cc1)NC(=S)Nc1ccc(Oc2ccnc3cc(-c4ccc(CNC5CC5)cc4)sc23)c(F)c1
[1]
  IC50: 250 to 500 nM
[2]
  IC50: < 250 nM
[3]
  IC50: < 250 nM
[4]
  IC50: 250 to 500 nM
[5]
  IC50: < 250 nM

## COCCNCCn1cc(-c2cc3nccc(Oc4ccc(NC(=O)CC(=O)N(C)c5ccccc5)cc4F)c3s2)cn1 [drawing 334]
[1]
  IC50: < 250 nM
[2]
  IC50: < 250 nM
[3]
  IC50: < 250 nM
[4]
  IC50: 250 to 500 nM
[5]
  IC50: < 250 nM

## CS(=O)(=O)CCNCc1cccc(-c2cc3nccc(Oc4ccc(NC(=S)NC(=O)Cc5ccc(F)cc5)cc4F)c3s2)c1
[1]
  IC50: > 1000 nM
[2]
  IC50: < 250 nM
[3]
  IC50: < 250 nM
[4]
  IC50: > 1000 nM
[5]
  IC50: < 250 nM

## COC[C@H](C)NCc1ccc(-c2cc3nccc(Oc4ccc(NC(=O)C5(C(=O)Nc6ccccc6)CC5)cc4F)c3s2)cc1
[1]
  IC50: < 250 nM
[2]
  IC50: < 250 nM
[3]
  IC50: < 250 nM
[4]
  IC50: < 250 nM
[5]
  IC50: < 250 nM

## COCCNCc1cccc(-c2cc3nccc(Oc4ccc(NC(=O)Nc5cc(C(F)(F)F)ccc5F)cc4F)c3s2)n1
[2]
  IC50: < 250 nM
[3]
  IC50: < 250 nM

## COCCNCc1cnc(-c2cc3nccc(Oc4ccc(NC(=O)NC5CC5)cc4F)c3s2)n1C
[2]
  IC50: < 250 nM
[3]
  IC50: 250 to 500 nM

## COCCNCc1cnc(-c2cc3nccc(Oc4ccc(NC(=O)Nc5cc(C)on5)cc4F)c3s2)n1C
[2]
  IC50: < 250 nM

## COCCN(Cc1cnc(-c2cc3nccc(Oc4ccc(NC(=O)NC5CC5)cc4F)c3s2)n1C)C(=O)OCc1ccccc1
[3]
  IC50: > 1000 nM

## COCCNCc1ccc(-c2cc3nccc(Oc4ccc(NC(=O)C5(C(=O)Nc6ccc(F)cc6)CC5)cc4F)c3s2)nc1 [drawing 354]
[1]
  IC50: < 250 nM
[2]
  IC50: < 250 nM
[4]
  IC50: < 250 nM

## COCCNCc1cccc(-c2cc3nccc(Oc4ccc(NC(=O)NC5CC5)cc4F)c3s2)n1
[2]
  IC50: 250 to 500 nM
[3]
  IC50: 250 to 500 nM
